Measurements published in US8927533B2, “Thio derivatives bearing lactams as potent HDAC inhibitors and their uses as medicaments” (SIGMA-TAU Industrie Farmaceutiche Riunite S.p.A., priority 2011, dated 2015).
Read-outs that look alike come from different tables or passages of the source.

Legend:
Type in all cases: biochemical
HDAC8 = molecular target: T1, HDAC8 (Homo sapiens, UniProt Q9BY41); assay: HDAC enzymatic assay, HDAC8
T1 sequence (Q9BY41 1-377): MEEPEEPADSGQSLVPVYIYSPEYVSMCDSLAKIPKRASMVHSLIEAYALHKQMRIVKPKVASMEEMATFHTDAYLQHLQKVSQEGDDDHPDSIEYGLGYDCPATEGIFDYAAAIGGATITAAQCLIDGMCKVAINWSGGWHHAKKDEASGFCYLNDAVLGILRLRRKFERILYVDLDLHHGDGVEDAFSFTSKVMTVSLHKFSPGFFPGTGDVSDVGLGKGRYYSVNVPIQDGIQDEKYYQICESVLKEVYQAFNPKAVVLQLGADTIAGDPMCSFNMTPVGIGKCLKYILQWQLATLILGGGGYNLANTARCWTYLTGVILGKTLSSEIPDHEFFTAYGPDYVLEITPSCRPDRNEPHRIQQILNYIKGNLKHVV
Procedure: (§1) Each compound was dissolved in DMSO, and progressively diluted solutions were used for testing. […] Upon its deacetylation, the fluorophore was released given rise to fluorescence emission which was detected by a fluorimeter, and the IC50 values of the compounds were determined by analyzing dose-response inhibition curves.

HDAC5 = HDAC5 (Homo sapiens, UniProt Q9UQL6); assay: HDAC enzymatic assay, HDAC5
Procedure: as §1

HDAC7 = molecular target: T2, HDAC7 (Homo sapiens, UniProt Q8WUI4); assay: HDAC enzymatic assay, HDAC7
T2 sequence (Q8WUI4 1-952): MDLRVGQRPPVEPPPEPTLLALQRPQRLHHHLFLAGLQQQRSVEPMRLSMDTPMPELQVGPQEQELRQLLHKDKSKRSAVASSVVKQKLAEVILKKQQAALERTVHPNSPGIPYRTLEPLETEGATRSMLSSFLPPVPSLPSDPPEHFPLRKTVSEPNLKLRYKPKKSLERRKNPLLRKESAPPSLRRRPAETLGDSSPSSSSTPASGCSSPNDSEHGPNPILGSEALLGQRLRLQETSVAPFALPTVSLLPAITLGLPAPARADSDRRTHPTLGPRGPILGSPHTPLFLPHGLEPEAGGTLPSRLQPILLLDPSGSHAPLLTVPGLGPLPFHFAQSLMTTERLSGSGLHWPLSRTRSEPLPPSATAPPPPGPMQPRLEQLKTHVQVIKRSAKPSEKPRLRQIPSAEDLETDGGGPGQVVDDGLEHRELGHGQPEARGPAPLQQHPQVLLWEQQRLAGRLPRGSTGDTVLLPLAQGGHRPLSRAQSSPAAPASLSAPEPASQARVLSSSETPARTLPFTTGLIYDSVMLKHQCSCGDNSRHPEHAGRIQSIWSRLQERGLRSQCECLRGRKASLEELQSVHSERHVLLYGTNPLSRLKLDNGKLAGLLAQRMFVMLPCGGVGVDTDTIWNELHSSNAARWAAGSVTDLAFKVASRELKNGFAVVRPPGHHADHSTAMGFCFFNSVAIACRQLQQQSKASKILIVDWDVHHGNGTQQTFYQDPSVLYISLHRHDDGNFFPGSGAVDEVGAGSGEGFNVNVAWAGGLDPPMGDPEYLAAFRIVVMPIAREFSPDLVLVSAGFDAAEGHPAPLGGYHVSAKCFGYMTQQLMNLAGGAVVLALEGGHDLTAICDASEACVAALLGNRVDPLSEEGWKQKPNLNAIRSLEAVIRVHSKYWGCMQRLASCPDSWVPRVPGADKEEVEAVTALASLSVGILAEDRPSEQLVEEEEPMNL
Procedure: as §1

HDAC6 = molecular target: T3, HDAC6 (Homo sapiens, UniProt Q9UBN7); assay: HDAC enzymatic assay, HDAC6
T3 sequence (Q9UBN7 1-1215): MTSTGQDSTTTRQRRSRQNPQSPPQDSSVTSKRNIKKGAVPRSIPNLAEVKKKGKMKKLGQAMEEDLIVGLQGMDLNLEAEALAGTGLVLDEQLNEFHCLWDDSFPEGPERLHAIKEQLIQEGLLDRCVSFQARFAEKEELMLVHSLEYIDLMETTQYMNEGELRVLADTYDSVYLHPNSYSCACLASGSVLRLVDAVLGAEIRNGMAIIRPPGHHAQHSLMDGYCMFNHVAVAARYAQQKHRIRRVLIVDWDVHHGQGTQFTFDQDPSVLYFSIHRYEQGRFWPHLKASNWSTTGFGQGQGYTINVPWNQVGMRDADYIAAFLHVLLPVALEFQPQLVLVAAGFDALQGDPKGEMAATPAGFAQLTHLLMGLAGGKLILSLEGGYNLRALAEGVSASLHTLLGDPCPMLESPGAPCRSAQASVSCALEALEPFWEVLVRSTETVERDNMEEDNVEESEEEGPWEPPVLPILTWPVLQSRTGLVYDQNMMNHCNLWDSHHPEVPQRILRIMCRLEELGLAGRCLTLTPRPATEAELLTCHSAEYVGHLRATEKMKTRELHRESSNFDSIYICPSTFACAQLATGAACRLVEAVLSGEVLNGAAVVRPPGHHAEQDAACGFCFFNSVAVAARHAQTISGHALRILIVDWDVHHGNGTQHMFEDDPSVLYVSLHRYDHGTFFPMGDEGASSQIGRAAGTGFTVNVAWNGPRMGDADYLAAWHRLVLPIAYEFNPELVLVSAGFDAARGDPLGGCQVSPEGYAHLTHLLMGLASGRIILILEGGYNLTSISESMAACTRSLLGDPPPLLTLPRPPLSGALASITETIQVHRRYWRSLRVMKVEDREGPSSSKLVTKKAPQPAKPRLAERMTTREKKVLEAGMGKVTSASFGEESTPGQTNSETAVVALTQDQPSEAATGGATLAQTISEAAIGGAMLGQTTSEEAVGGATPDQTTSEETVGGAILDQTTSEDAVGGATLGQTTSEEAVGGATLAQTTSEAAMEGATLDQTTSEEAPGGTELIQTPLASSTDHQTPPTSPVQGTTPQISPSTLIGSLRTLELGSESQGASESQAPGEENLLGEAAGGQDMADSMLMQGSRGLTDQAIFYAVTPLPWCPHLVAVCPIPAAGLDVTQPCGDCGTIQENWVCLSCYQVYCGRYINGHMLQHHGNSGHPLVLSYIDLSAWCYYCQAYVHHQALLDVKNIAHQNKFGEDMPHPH
Procedure: as §1

HDAC9 = HDAC9 (Homo sapiens, UniProt Q9UKV0); assay: HDAC enzymatic assay, HDAC9
Procedure: as §1

[1] = Table 2, thio (SH) vs hydroxamate (CONHOH) MBG analogues, read-out: HDAC isoforms, 8 (IC50)
[2] = Table 2, thio (SH) vs hydroxamate (CONHOH) MBG analogues, read-out: HDAC isoforms, 5 (IC50)
[3] = Table 2, thio (SH) vs hydroxamate (CONHOH) MBG analogues, read-out: HDAC isoforms, 7 (IC50)
[4] = Table 2, thio (SH) vs hydroxamate (CONHOH) MBG analogues, read-out: HDAC isoforms, 6 (IC50)
[5] = Table 2, thio (SH) vs hydroxamate (CONHOH) MBG analogues, read-out: HDAC isoforms, 9 (IC50)
[6] = fluorogenic tetrapeptide RHKKAc substrate 10 μM, read-out: HDAC isoforms IC50 (nM), 8
[7] = fluorogenic tetrapeptide RHKKAc substrate 10 μM, read-out: HDAC isoforms IC50 (nM), 5
[8] = fluorogenic tetrapeptide RHKKAc substrate 10 μM, read-out: HDAC isoforms IC50 (nM), 7
[9] = fluorogenic tetrapeptide RHKKAc substrate 10 μM, read-out: HDAC isoforms IC50 (nM), 6
[10] = fluorogenic tetrapeptide RHKKAc substrate 10 μM, read-out: HDAC isoforms IC50 (nM), 9

Chain of HDAC9 (Q9UKV0 whole entry): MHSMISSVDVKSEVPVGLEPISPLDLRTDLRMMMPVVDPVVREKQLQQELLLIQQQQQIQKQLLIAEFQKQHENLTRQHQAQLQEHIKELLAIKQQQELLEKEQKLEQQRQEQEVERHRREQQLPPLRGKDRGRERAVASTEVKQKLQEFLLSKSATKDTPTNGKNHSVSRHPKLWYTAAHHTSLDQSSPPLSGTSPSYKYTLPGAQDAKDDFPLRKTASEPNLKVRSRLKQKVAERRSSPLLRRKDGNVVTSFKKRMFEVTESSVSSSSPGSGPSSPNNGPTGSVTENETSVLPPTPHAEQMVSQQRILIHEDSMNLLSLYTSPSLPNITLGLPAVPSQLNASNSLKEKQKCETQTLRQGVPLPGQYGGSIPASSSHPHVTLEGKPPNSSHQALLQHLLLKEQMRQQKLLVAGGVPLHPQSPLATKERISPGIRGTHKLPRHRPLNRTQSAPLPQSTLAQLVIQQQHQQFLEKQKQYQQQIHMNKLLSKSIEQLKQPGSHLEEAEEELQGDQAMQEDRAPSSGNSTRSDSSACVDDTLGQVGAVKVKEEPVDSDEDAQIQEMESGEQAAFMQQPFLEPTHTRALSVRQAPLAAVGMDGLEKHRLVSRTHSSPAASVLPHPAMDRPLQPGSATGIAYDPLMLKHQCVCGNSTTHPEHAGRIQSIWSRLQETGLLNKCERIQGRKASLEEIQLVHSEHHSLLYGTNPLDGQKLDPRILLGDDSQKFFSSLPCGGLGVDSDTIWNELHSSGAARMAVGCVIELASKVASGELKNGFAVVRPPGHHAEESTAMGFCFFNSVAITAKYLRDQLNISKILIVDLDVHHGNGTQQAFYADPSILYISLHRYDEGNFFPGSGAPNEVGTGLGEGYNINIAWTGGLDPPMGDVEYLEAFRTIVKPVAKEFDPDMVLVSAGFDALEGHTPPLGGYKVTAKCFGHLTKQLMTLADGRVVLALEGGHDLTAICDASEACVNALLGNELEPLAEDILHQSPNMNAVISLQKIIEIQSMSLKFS
Chain of HDAC5 (Q9UQL6 whole entry): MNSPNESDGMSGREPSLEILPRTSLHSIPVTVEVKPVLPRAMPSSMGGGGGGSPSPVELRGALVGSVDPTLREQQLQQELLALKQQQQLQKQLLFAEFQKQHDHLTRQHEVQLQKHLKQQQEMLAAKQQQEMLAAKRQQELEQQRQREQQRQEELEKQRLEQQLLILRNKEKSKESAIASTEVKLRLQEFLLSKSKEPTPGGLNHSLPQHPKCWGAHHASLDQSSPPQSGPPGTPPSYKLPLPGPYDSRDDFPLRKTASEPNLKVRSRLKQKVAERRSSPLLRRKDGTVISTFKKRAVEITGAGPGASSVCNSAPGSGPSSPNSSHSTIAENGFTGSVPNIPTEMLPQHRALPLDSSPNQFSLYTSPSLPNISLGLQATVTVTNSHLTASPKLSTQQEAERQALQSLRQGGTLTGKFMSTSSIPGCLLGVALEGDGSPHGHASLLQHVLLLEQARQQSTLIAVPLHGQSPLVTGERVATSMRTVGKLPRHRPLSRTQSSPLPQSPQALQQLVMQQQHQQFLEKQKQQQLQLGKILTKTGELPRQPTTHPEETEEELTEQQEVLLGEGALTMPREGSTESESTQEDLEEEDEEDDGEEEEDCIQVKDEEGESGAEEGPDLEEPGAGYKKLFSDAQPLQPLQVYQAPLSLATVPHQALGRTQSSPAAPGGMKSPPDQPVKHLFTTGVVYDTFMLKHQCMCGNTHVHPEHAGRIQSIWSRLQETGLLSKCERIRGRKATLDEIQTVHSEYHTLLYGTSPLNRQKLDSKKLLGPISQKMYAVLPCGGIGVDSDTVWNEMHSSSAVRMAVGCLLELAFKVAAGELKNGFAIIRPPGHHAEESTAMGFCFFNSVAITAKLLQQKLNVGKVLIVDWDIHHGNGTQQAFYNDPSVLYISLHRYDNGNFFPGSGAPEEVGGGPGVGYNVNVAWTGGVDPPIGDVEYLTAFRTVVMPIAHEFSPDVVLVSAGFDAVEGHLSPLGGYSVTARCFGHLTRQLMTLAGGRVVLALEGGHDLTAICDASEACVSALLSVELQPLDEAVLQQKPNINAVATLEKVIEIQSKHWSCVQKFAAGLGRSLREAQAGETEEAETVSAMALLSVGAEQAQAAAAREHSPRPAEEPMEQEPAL

IC50 (HDAC8; [1]) [nM]	IC50 (HDAC5; [2]) [nM]	IC50 (HDAC7; [3]) [nM]	IC50 (HDAC6; [4]) [nM]	IC50 (HDAC9; [5]) [nM]	IC50 (HDAC8; [6]) [nM]	IC50 (HDAC5; [7]) [nM]	IC50 (HDAC7; [8]) [nM]	IC50 (HDAC6; [9]) [nM]	IC50 (HDAC9; [10]) [nM]	SMILES
100 to 500	< 50	< 50	< 50	< 50						CC(=O)SCCCCC[C@H](NC(=O)[C@H]1CCC(=O)N1)C(=O)Nc1ccccc1 [Example 21, Thioacetic acid S—{(S)-6-[((R)-5-oxo-pyrrolidine-2-carbonyl)-amino]-6-phenylcarbamoyl-hexyl}ester]
					100 to 500	< 50	< 50	< 50	< 50	O=C1CCC[C@@H](C(=O)N[C@@H](CCCCCS)C(=O)Nc2ccccc2)N1 [Example 23, (S)-6-Oxo-piperidine-2-carboxylic acid ((S)-6-mercapto-1-phenylcarbamoyl-hexyl)amide]
					100 to 500	100 to 500	< 50	< 50	< 50	O=C1CCC[C@@H](C(=O)N[C@@H](CCCCCS)C(=O)NC2CCCC2)N1 [Example 24, (S)-6-Oxo-piperidine-2-carboxylic acid ((S)-1-cyclopentylcarbamoyl-6-mercapto-hexyl)amide]
					< 50	100 to 500	100 to 500	50 to 100	100 to 500	O=C1CCC[C@@H](C(=O)N[C@@H](CCCCCS)C(=O)NCc2cccc(OCc3ccccc3)c2)N1 [Example 25, (S)-6-Oxo-piperidine-2-carboxylic acid [(S)-1-(3-benzyloxy-benzylcarbamoyl)-6-mercapto-hexyl]-amide]
					< 50	100 to 500	100 to 500	100 to 500	100 to 500	O=C1CCC[C@@H](C(=O)N[C@@H](CCCCCS)C(=O)NCc2ccc(C(F)(F)F)cc2)N1 [Example 26, (S)-6-Oxo-piperidine-2-carboxylic acid [(S)-6-mercapto-1-(4-trifluoromethyl-benzylcarbamoyl)-hexyl]-amide]
					50 to 100	< 50	< 50	< 50	< 50	O=C1C[C@@H](C(=O)N[C@@H](CCCCCS)C(=O)Nc2ccccc2)N1 [Example 27, (S)-4-Oxo-azetidine-2-carboxylic acid ((S)-6-mercapto-1-phenylcarbamoyl-hexyl)amide]
					100 to 500	50 to 100	100 to 500	< 50	< 50	O=C1NC[C@H](c2ccccc2)[C@@H]1C(=O)N[C@@H](CCCCCS)C(=O)Nc1ccccc1 [Example 28, (3S,4S)-2-Oxo-4-phenyl-pyrrolidine-3-carboxylic acid ((S)-6-mercapto-1-phenylcarbamoyl-hexyl)-amide]
					100 to 500	100 to 500	100 to 500	< 50	50 to 100	O=C1NC[C@@H](c2ccccc2)[C@H]1C(=O)N[C@@H](CCCCCS)C(=O)Nc1ccccc1 [Example 29, (3R,4R)-2-Oxo-4-phenyl-pyrrolidine-3-carboxylic acid ((S)-6-mercapto-1-phenylcarbamoyl-hexyl)-amide]
					100 to 500	100 to 500	100 to 500	100 to 500	50 to 100	O=C1NC[C@H](c2ccccc2)[C@H]1C(=O)N[C@@H](CCCCCS)C(=O)Nc1ccccc1 [Example 30, (3R,4S)-2-Oxo-4-phenyl-pyrrolidine-3-carboxylic acid ((S)-6-mercapto-1-phenylcarbamoyl-hexyl)-amide]
< 50	< 50	< 50	< 50	< 50	< 50	< 50	< 50	< 50	< 50	O=C1NC[C@@H](c2ccccc2)[C@@H]1C(=O)N[C@@H](CCCCCS)C(=O)Nc1ccccc1 [Example 31, (3S,4R)-2-Oxo-4-phenyl-pyrrolidine-3-carboxylic acid ((S)-6-mercapto-1-phenylcarbamoyl-hexyl)-amide]
					100 to 500	100 to 500	100 to 500	100 to 500	100 to 500	O=C1CCC[C@@H](C(=O)N[C@@H](CCCCCS)C(=O)N2CCc3ccccc3C2)N1 [Example 32, (S)-6-Oxo-piperidine-2-carboxylic acid [(S)-1-(3,4-dihydro-1H-isoquinoline-2-carbonyl)-6-mercapto-hexyl]-amide]
100 to 500	< 50	< 50	< 50	< 50	100 to 500	< 50	< 50	< 50	< 50	O=C1CC[C@H](C(=O)N[C@@H](CCCCCS)C(=O)Nc2ccccc2)N1 [Example 33, (R)-5-Oxo-pyrrolidine-2-carboxylic acid ((S)-6-mercapto-1-phenylcarbamoyl-hexyl)amide]
					< 50	100 to 500	100 to 500	< 50	100 to 500	Cc1cccc(CCNC(=O)[C@H](CCCCCS)NC(=O)[C@@H]2CCCC(=O)N2)c1 [Example 34, (S)-6-Oxo-piperidine-2-carboxylic acid [(S)-6-mercapto-1-(2-m-tolyl-ethylcarbamoyl)hexyl]-amide]
